{"source": "paper PMC3946003", "about": "“Protein kinase inhibitor SU6668 attenuates positive regulation of Gli proteins in cancer and multipotent progenitor cells” (Biochimica et Biophysica Acta, 2014)", "key": {"ULK3 [1]": {"target": "T1, ULK3 (Homo sapiens, UniProt Q6PHR2)", "T1 sequence (Q6PHR2 1-472)": "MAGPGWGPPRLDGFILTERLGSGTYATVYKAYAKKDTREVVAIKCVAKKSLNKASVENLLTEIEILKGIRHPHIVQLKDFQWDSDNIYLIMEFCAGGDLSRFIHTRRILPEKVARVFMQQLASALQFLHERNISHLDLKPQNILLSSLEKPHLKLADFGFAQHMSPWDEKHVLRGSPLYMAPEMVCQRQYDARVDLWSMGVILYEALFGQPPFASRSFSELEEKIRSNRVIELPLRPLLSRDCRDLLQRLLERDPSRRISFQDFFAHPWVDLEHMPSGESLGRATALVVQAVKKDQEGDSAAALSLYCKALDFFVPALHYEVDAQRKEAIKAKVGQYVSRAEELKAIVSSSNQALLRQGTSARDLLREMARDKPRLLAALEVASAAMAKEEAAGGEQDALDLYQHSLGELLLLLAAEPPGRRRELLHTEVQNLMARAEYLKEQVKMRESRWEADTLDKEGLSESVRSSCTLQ", "assay": "in vitro kinase assay (ULK3 autophosphorylation, […] ATP); Ki calculated from IC50 […]", "type": "biochemical", "design": "bacterially expressed and purified His-tagged ULK3 protein"}, "ULK3 [2]": {"target": "T1, ULK3"}}}
{"smiles": "Cc1[nH]c(/C=C2\\C(=O)Nc3ccccc32)c(C)c1CCC(=O)O", "note": "[SU6668, (Z)-5-[(1,2-dihydro-2-oxo-3H-indol-3-ylidene)methyl]-2,4-dimethyl-1H-pyrrole-3-propanoic acid]", "values": [{"measurement": "Ki", "setting": "ULK3 [1]", "result": "~200", "unit": "nM"}]}
{"smiles": "Nc1ncnc2c1ncn2[C@@H]1O[C@H](COP(=O)(O)OP(=O)(O)OP(=O)(O)O)[C@@H](O)[C@H]1O", "note": "[ATP]", "values": [{"measurement": "Km", "setting": "ULK3 [2]", "result": 3.2, "unit": "µM"}]}
